Structures can show the parent of a compound that is named as a salt.
Key:
purified rat nNOS = purified rat nNOS (Rattus norvegicus, UniProt P29476); assay: NO-hemoglobin; format: biochemical; conditions: for drop in potency with rnNOS relative to 12: compared with 12
human nNOS = human nNOS (Homo sapiens, UniProt P29475); assay: NO-hemoglobin; format: biochemical; conditions: for drop in potency with hnNOS relative to 12: compared with 12
[1] = PAMPA-BBB parallel artificial membrane permeability assay; format: in vitro ADME; conditions: 17 h, 200 μM, triplicate, in-house conditions
human eNOS = human eNOS (Homo sapiens, UniProt P29474); assay: NO-hemoglobin; format: biochemical; conditions: hn/he compared to lead 9

Compound | drop in potency with hnNOS relative to 12 (human nNOS) [fold] | Determined Pe [1] | also measured
CNCC#Cc1cc(C)cc(N)n1 [Compound 10, 4-methyl-6-(3-(methylamino)prop-1-yn-1-yl)pyridin-2-amine dihydrochloride] |  |  | drop in potency with rnNOS relative to 12 (purified rat nNOS): 3 fold
Cc1cc(N)nc(C#CCCN(C)C)c1 [Compound 15, 6-(4-(dimethylamino)but-1-yn-1-yl)-4-methylpyridin-2-amine dihydrochloride] | 11 |  | 
Cc1cc(N)nc(CCCN2CCC(F)(F)CC2)c1 [Compound 20, 6-(3-(4,4-difluoropiperidin-1-yl)propyl)-4-methylpyridin-2-amine dihydrochloride] |  | 17.3 10^−6 cm s^−1 | 
Cc1cc(N)nc(CCCN(C)C)c1 [Compound 12, 6-(3-(dimethylamino)propyl)-4-methylpyridin-2-amine dihydrochloride] |  | 2.0 10^−6 cm s^−1 | drop in heNOS selectivity as compared to lead 9 (human eNOS): 8 fold
Cc1cc(N)nc(C#CCN2CCN(C)CC2)c1 [Compound 13, 4-methyl-6-(3-(4-methylpiperazin-1-yl)prop-1-yn-1-yl)pyridin-2-amine dihydrochloride] | ~73 |  | 

The next lines start with results.

drop in potency with hnNOS relative to 12 (human nNOS) [fold] | Determined Pe [1] | Compound | also measured
~17 |  | Cc1cc(N)nc(C#CCN2CC(F)(F)C2)c1 [Compound 17, 6-(3-(3,3-difluoroazetidin-1-yl)prop-1-yn-1-yl)-4-methylpyridin-2-amine dihydrochloride] | better affinity than 19 with hnNOS (human nNOS; compared with 19): 3 fold; better affinity than 19 with rnNOS (purified rat nNOS; compared with 19): 3 fold
~2 |  | Cc1cc(N)nc(CCCCN(C)C)c1 [Compound 16, 6-(4-(dimethylamino)butyl)-4-methylpyridin-2-amine dihydrochloride] | 
~49 | 21.1 10^−6 cm s^−1 | Cc1cc(N)nc(C#CCN2CCC(F)(F)CC2)c1 [Compound 19, 6-(3-(4,4-difluoropiperidin-1-yl)prop-1-yn-1-yl)-4-methylpyridin-2-amine] | drop in potency with rnNOS relative to 12 (purified rat nNOS): about 61 fold
